Values joined by “and” are separate entries in the source; they are usually repeats but may differ in a detail not shown here. Equal values may be shown once.
How the values were obtained:
[1] = tested on: Tyrosine-protein kinase ABL1 (Homo sapiens), P00519 [Q252H]; assay: Inhibition of phosphorylated human ABL1 Q252H mutant assessed as percent of control at 2000 nM by KINOMEscan assay relative to control; design: scale not given: the % may be the effect or the level left
[2] = biological target: Mast/stem cell growth factor receptor Kit (Homo sapiens) (UniProt P10721); assay: Inhibition of human autoinhibited KIT assessed as percent of control at 2000 nM by KINOMEscan assay relative to control; design: scale not given: the % may be the effect or the level left
[3] = biological target: Inhibitor of nuclear factor kappa-B kinase subunit alpha (Homo sapiens) (UniProt O15111); assay: Inhibition of human IKK-alpha assessed as percent of control at 2000 nM by KINOMEscan assay relative to control; design: scale not given: the % may be the effect or the level left
[4] = tested on: Mast/stem cell growth factor receptor Kit (Homo sapiens), P10721 [V559D,T670I]; assay: Inhibition of human KIT V559D/T670I double mutant assessed as percent of control at 2000 nM by KINOMEscan assay relative to control; design: scale not given: the % may be the effect or the level left
[5] = biological target: Leucine-rich repeat serine/threonine-protein kinase 2 (Homo sapiens) (UniProt Q5S007); assay: Inhibition of human LRRK2 assessed as percent of control at 2000 nM by KINOMEscan assay relative to control; design: scale not given: the % may be the effect or the level left
[6] = biological target: Cyclin-dependent kinase-like 5 (Homo sapiens) (UniProt O76039); assay: Inhibition of human CDKL5 assessed as percent of control at 2000 nM by KINOMEscan assay relative to control; design: scale not given: the % may be the effect or the level left
[7] = biological target: Serine/threonine-protein kinase D3 (Homo sapiens) (UniProt O94806); assay: Inhibition of human PRKD3 assessed as percent of control at 2000 nM by KINOMEscan assay relative to control; design: scale not given: the % may be the effect or the level left
[8] = biological target: Ephrin type-A receptor 2 (Homo sapiens) (UniProt P29317); assay: Inhibition of human EPHA2 assessed as percent of control at 2000 nM by KINOMEscan assay relative to control; design: scale not given: the % may be the effect or the level left
Ephrin type-A receptor 2 (Homo sapiens), sequence (P29317 whole entry): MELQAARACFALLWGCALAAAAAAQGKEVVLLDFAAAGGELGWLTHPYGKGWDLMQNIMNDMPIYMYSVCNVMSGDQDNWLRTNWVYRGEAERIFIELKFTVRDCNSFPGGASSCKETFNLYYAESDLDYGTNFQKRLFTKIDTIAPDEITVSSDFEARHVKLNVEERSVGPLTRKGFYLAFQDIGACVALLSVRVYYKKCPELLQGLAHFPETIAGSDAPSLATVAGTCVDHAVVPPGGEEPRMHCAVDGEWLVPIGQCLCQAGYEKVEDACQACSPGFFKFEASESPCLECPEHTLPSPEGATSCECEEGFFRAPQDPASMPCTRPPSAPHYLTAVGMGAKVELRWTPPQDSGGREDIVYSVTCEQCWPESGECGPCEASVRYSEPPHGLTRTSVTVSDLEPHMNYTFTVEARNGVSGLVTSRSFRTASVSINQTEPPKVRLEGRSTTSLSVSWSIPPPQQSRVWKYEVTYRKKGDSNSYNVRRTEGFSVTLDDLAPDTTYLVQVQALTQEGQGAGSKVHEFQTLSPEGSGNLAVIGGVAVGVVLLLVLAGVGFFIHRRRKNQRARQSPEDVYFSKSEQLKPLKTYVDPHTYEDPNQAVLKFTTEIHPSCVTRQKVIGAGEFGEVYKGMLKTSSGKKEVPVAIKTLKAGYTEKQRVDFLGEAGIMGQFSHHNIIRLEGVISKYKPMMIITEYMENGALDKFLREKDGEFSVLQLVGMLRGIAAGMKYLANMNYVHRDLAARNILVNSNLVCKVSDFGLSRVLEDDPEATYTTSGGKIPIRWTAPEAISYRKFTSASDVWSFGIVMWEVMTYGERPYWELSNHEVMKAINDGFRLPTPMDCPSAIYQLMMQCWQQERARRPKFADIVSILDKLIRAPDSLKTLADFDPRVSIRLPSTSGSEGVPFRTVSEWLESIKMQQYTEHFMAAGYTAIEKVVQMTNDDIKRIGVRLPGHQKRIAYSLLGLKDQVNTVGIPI

[9] = biological target: Serine/threonine-protein kinase PRP4 homolog (Homo sapiens) (UniProt Q13523); assay: Inhibition of human PRP4 assessed as percent of control at 2000 nM by KINOMEscan assay relative to control; design: scale not given: the % may be the effect or the level left
[10] = biological target: Tyrosine-protein kinase ZAP-70 (Homo sapiens) (UniProt P43403); assay: Inhibition of human ZAP70 assessed as percent of control at 2000 nM by KINOMEscan assay relative to control; design: scale not given: the % may be the effect or the level left
[11] = biological target: Serine/threonine-protein kinase 32C (Homo sapiens) (UniProt Q86UX6); assay: Inhibition of human YANK3 assessed as percent of control at 2000 nM by KINOMEscan assay relative to control; design: scale not given: the % may be the effect or the level left
[12] = biological target: Ephrin type-B receptor 2 (Homo sapiens) (UniProt P29323); assay: Inhibition of human EPHB2 assessed as percent of control at 2000 nM by KINOMEscan assay relative to control; design: scale not given: the % may be the effect or the level left
[13] = biological target: Ephrin type-A receptor 1 (Homo sapiens) (UniProt P21709); assay: Inhibition of human EPHA1 assessed as percent of control at 2000 nM by KINOMEscan assay relative to control; design: scale not given: the % may be the effect or the level left
Ephrin type-A receptor 1 (Homo sapiens), sequence (P21709 whole entry): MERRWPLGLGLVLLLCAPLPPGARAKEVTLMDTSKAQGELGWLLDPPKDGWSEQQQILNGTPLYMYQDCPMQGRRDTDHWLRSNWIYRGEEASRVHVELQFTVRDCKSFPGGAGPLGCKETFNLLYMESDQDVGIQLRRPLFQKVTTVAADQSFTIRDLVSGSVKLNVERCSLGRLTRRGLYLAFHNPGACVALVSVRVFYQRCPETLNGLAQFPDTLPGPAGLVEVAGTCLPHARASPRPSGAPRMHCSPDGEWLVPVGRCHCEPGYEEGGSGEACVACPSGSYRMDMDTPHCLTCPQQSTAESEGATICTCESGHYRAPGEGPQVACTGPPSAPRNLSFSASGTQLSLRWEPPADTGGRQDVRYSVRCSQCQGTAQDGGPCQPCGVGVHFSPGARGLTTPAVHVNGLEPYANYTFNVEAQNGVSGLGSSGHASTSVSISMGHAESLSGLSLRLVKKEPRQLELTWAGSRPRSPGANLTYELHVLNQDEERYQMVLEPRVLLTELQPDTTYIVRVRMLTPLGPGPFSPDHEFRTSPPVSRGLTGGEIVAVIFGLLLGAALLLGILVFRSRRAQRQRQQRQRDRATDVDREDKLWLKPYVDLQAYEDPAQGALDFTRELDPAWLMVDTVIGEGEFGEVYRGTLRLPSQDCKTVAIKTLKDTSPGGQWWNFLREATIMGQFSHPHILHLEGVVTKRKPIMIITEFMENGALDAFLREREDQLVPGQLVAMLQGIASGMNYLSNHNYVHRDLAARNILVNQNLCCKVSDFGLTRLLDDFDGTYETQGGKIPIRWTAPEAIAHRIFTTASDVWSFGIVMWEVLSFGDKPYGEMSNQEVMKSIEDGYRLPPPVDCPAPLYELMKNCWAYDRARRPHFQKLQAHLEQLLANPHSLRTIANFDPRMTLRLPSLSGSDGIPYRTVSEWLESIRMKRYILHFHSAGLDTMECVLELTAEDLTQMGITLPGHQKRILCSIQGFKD

[14] = biological target: Mitogen-activated protein kinase kinase kinase 14 (Homo sapiens) (UniProt Q99558); assay: Inhibition of human NIK assessed as percent of control at 2000 nM by KINOMEscan assay relative to control; design: scale not given: the % may be the effect or the level left
Mitogen-activated protein kinase kinase kinase 14 (Homo sapiens), sequence (Q99558 whole entry, looked up): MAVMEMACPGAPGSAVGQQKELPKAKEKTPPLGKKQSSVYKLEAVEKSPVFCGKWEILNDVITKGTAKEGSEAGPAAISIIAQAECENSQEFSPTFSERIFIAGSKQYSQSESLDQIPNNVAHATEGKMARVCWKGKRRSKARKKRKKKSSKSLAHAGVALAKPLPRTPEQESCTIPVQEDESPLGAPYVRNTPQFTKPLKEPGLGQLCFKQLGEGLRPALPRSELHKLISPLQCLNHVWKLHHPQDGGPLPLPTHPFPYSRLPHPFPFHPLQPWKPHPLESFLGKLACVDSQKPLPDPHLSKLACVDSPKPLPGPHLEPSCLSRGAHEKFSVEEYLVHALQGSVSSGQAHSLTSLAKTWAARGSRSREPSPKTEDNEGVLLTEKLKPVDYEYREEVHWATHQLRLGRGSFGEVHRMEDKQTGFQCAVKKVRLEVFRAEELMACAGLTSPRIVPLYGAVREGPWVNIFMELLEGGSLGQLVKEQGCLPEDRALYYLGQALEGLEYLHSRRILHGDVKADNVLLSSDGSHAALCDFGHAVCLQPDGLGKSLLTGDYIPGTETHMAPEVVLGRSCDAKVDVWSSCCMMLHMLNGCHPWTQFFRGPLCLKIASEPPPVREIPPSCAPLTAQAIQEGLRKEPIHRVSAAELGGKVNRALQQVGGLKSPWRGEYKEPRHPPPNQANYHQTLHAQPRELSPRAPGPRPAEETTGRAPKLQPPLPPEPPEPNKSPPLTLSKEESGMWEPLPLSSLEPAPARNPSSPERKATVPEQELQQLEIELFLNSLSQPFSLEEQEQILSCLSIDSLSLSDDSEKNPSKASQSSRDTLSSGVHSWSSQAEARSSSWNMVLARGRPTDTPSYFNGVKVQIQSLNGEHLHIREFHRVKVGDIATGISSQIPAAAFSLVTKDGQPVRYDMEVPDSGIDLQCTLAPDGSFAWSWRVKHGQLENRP

[15] = tested on: Epidermal growth factor receptor (Homo sapiens), P00533 [L858R,T790M]; assay: Inhibition of human EGFR L858R/T790M double mutant assessed as percent of control at 2000 nM by KINOMEscan assay relative to control; design: scale not given: the % may be the effect or the level left
[16] = biological target: Vascular endothelial growth factor receptor 1 (Homo sapiens) (UniProt P17948); assay: Inhibition of human FLT1 assessed as percent of control at 2000 nM by KINOMEscan assay relative to control; design: scale not given: the % may be the effect or the level left
Vascular endothelial growth factor receptor 1 (Homo sapiens), sequence (P17948 whole entry, the tested form may be a part): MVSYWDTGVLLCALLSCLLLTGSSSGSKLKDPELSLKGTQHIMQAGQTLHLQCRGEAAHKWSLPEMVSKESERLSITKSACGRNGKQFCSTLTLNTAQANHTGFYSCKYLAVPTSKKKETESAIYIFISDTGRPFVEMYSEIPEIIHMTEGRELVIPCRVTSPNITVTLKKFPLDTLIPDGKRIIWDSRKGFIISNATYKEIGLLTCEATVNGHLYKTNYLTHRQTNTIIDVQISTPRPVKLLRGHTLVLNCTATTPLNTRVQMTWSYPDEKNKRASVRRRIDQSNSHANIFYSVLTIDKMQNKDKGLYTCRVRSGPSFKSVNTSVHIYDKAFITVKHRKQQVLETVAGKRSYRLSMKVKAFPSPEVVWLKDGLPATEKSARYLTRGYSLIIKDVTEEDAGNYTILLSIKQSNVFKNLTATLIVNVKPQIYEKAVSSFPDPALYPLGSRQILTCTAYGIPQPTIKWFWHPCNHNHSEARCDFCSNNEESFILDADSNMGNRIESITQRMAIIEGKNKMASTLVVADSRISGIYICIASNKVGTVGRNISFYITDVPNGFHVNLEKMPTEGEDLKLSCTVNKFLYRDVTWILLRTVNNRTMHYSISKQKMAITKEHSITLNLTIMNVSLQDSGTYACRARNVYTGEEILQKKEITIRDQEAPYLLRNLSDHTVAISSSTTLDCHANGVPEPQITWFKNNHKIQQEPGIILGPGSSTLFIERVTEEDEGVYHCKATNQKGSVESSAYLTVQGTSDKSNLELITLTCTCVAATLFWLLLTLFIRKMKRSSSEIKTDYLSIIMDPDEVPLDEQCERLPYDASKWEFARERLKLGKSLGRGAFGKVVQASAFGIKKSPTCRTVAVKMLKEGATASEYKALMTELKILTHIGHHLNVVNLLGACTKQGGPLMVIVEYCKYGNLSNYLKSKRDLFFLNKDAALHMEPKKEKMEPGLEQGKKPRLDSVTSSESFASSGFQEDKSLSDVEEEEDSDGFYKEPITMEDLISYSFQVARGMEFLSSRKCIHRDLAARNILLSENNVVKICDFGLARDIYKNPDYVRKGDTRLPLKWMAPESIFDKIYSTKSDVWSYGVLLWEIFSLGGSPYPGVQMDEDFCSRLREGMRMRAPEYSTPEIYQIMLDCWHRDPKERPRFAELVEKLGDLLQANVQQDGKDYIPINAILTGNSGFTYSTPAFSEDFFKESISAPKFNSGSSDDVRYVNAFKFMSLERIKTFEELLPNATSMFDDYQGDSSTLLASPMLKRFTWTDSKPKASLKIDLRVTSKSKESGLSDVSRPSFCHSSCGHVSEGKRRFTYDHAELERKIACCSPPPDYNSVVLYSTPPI

[17] = biological target: Phosphatidylinositol 4-phosphate 3-kinase C2 domain-containing subunit beta (Homo sapiens) (UniProt O00750); assay: Inhibition of human PIK3CB assessed as percent of control at 2000 nM by KINOMEscan assay relative to control; design: scale not given: the % may be the effect or the level left
[18] = biological target: Cyclin-dependent kinase 5 (Homo sapiens) (UniProt Q00535); assay: Inhibition of human CDK5 assessed as percent of control at 2000 nM by KINOMEscan assay relative to control; design: scale not given: the % may be the effect or the level left
Cyclin-dependent kinase 5 (Homo sapiens), sequence (Q00535 whole entry, looked up): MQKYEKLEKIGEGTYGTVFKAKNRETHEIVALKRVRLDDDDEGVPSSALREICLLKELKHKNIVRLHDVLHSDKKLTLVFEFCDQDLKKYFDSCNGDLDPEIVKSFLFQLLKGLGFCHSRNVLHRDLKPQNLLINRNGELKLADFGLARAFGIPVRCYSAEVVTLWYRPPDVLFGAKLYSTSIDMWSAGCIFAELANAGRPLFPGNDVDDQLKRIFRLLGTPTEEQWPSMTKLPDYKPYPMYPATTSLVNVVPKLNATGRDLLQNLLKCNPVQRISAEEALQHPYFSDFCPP

[19] = biological target: Serine/threonine-protein kinase MRCK beta (Homo sapiens) (UniProt Q9Y5S2); assay: Inhibition of human MRCKB assessed as percent of control at 2000 nM by KINOMEscan assay relative to control; design: scale not given: the % may be the effect or the level left
[20] = biological target: Tyrosine-protein kinase SYK (Homo sapiens) (UniProt P43405); assay: Inhibition of human SYK assessed as percent of control at 2000 nM by KINOMEscan assay relative to control; design: scale not given: the % may be the effect or the level left
[21] = biological target: Ribosomal protein S6 kinase alpha-2 (Homo sapiens) (UniProt Q15349); assay: Inhibition of human C-terminal RSK3 kinase domain 2 assessed as percent of control at 2000 nM by KINOMEscan assay relative to control; design: scale not given: the % may be the effect or the level left
[22] = tested on: Tyrosine-protein kinase ABL1 (Homo sapiens), P00519 [F317L]; assay: Inhibition of phosphorylated human ABL1 F317L mutant assessed as percent of control at 2000 nM by KINOMEscan assay relative to control; design: scale not given: the % may be the effect or the level left
[23] = biological target: ALK tyrosine kinase receptor (Homo sapiens) (UniProt Q9UM73); assay: Inhibition of human ALK assessed as percent of control at 2000 nM by KINOMEscan assay relative to control; design: scale not given: the % may be the effect or the level left
[24] = biological target: MAP kinase-activated protein kinase 2 (Homo sapiens) (UniProt P49137); assay: Inhibition of human MAPKAPK2 assessed as percent of control at 2000 nM by KINOMEscan assay relative to control; design: scale not given: the % may be the effect or the level left
[25] = biological target: 5'-AMP-activated protein kinase catalytic subunit alpha-1 (Homo sapiens) (UniProt Q13131); assay: Inhibition of human AMPK-alpha1 assessed as percent of control at 2000 nM by KINOMEscan assay relative to control; design: scale not given: the % may be the effect or the level left
5'-AMP-activated protein kinase catalytic subunit alpha-1 (Homo sapiens), sequence (Q13131 whole entry, looked up): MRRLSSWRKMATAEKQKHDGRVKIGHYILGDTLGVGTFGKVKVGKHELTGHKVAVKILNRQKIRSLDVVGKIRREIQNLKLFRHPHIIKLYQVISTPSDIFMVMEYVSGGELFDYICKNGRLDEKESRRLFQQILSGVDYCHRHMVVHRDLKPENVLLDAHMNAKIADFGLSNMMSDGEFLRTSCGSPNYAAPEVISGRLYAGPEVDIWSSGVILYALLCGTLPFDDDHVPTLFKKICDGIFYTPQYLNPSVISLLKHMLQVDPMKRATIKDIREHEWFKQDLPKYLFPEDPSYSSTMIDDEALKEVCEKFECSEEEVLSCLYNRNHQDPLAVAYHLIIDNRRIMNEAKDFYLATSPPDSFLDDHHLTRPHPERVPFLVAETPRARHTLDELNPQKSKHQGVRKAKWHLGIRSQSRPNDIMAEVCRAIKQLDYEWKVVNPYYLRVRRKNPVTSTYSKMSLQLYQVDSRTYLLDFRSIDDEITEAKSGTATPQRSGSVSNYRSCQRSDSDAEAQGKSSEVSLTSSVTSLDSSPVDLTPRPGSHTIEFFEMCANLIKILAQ

[26] = biological target: Calcium/calmodulin-dependent protein kinase kinase 1 (Homo sapiens) (UniProt Q8N5S9); assay: Inhibition of human CAMKK1 assessed as percent of control at 2000 nM by KINOMEscan assay relative to control; design: scale not given: the % may be the effect or the level left
[27] = biological target: Ephrin type-B receptor 4 (Homo sapiens) (UniProt P54760); assay: Inhibition of human EPHB4 assessed as percent of control at 2000 nM by KINOMEscan assay relative to control; design: scale not given: the % may be the effect or the level left
[28] = biological target: Serine/threonine-protein kinase TNNI3K (Homo sapiens) (UniProt Q59H18); assay: Inhibition of human TNNI3K assessed as percent of control at 2000 nM by KINOMEscan assay relative to control; design: scale not given: the % may be the effect or the level left
[29] = biological target: Tyrosine-protein kinase ABL2 (Homo sapiens) (UniProt P42684); assay: Inhibition of human ABL2 assessed as percent of control at 2000 nM by KINOMEscan assay relative to control; design: scale not given: the % may be the effect or the level left
[30] = biological target: Mitogen-activated protein kinase kinase kinase 19 (Homo sapiens) (UniProt Q56UN5); assay: Inhibition of human YSK4 assessed as percent of control at 2000 nM by KINOMEscan assay relative to control; design: scale not given: the % may be the effect or the level left
[31] = biological target: Casein kinase I isoform delta (Homo sapiens) (UniProt P48730); settings: INHIBITOR, dose 2000.0 nM
Description: Inhibition of human CSNK1D at 2000 nM by KINOMEscan assay

**Q.** `CN(C)C(=O)c1ccc(N2CCCN(c3ccnc4sc(C(N)=O)c(N)c34)CC2)cc1` was tested. Which Activity [1] did it give?
**A.** Its Activity is 94% and 83%.

**Q.** What about the Activity [2] of the same molecule?
**A.** The Activity was 90%.

**Q.** And the Activity [3]?
**A.** Its Activity is 77% and 90%.

**Q.** What about the Activity [4] of the same molecule?
**A.** The Activity was 100% and 96%.

**Q.** And the Activity [5]?
**A.** The Activity was 94% and 70%.

**Q.** And the Activity [6]?
**A.** The Activity was 100% and 84%.

**Q.** What about the Activity [7] of the same molecule?
**A.** Its Activity is 94% and 100%.

**Q.** And the Activity [8]?
**A.** The Activity was 95% and 100%.

**Q.** And the Activity [9]?
**A.** Its Activity is 100% and 88%.

**Q.** And the Activity [10]?
**A.** The Activity was 95% and 87%.

**Q.** What about the Activity [11] of the same molecule?
**A.** The Activity was 81% and 97%.

**Q.** What about the Activity [12] of the same molecule?
**A.** The Activity was 99% and 95%.

**Q.** And the Activity [13]?
**A.** Its Activity is 92% and 95%.

**Q.** And the Activity [14]?
**A.** Its Activity is 100% and 97%.

**Q.** What about the Activity [15] of the same molecule?
**A.** The Activity was 100% and 87%.

**Q.** And the Activity [16]?
**A.** The Activity was 100%.

**Q.** What about the Activity [17] of the same molecule?
**A.** Its Activity is 100% and 95%.

**Q.** And the Activity [18]?
**A.** Its Activity is 84% and 94%.

**Q.** And the Activity [19]?
**A.** Its Activity is 96% and 100%.

**Q.** What about the Activity [20] of the same molecule?
**A.** The Activity was 95% and 100%.

**Q.** What about the Activity [21] of the same molecule?
**A.** Its Activity is 100% and 89%.

**Q.** And the Activity [22]?
**A.** The Activity was 97% and 82%.

**Q.** And the Activity [23]?
**A.** Its Activity is 81% and 78%.

**Q.** And the Activity [24]?
**A.** The Activity was 91% and 99%.

**Q.** What about the Activity [25] of the same molecule?
**A.** The Activity was 100%.

**Q.** And the Activity [26]?
**A.** Its Activity is 96% and 100%.

**Q.** What about the Activity [27] of the same molecule?
**A.** The Activity was 100%.

**Q.** What about the Activity [28] of the same molecule?
**A.** The Activity was 100%.

**Q.** And the Activity [29]?
**A.** Its Activity is 85% and 91%.

**Q.** And the Activity [30]?
**A.** The Activity was 74% and 53%.

**Q.** And the inhibition [31]?
**A.** The inhibition was greater than 65%.

— ChEMBL document CHEMBL4804286, “3-amino-4-(4-(4 (dimethylcarbamoyl) phenyl)-1,4-diazepan-1-yl) thieno [2,3-b] pyridine-2-carboxamide for use in cancer therapy and formulations comprising the same” (2020)
